Type in all cases: in vivo
In series [1] the test system is Caki-1 human renal carcinoma. Description: Caki-1 renal tumour xenograft in SCID mice, SEQ ID NO:1 and interleukin-2. To be noted: Example 10; SEQ ID NO:1 10 mg/kg/48 hours i.v.; IL2 20000 or 5000 unit 2 times per day i.p.
Method: Cell line: Human renal carcinoma cell line (Caki-1) was grown as monolayer culture in Minimum essential medium (α-MEM) supplemented with 10% fetal bovine serum (FBS), 0.1 mM non-essential amino acid, 1.0 mM sodium pyruvate, 100 U/ml penicillin, 100 μg/ml streptomycin and 0.25 μg/ml amphotericin B and 2 mM L-alanyl-1-glutamine at 37° C. in an atmosphere of 5% CO2 in air. The tumour cells were routinely subcultured twice weekly by trypsin-EDTA treatment. The cells were harvested from subconfluent logarithmically growing culture by treatment with trypsin-EDTA and counted for tumour inoculation.
Tumour Inoculation: An acclimation period of at least 7 days was allowed between animal receipt and commencement of tumour inoculation. […]
Groups and treatments: The following treatments were evaluated in this experiment: • 1. […]
Tumour sizes were measured every week day from day 7 after the tumour cell inoculation in two dimensions using a caliper, and the volume was expressed in mm^3 using the formula: V=0.5 a×b^2, where a and b are the long and short diameters of the tumour, respectively. Mean tumour volumes calculated from each measurement were then plotted in a standard graph to compare the anti-tumour efficacy to that of controls. A day after the last treatment, tumours were excised from the animals and their weights were measured.
The test system of series [2] is HT-29 human colon cancer cells. The series is described as follows: HT-29 colon tumour xenograft in CD-1 nude mice. Here is the method:
HT-29 human colon cancer cells (3×10^6 cells in 100 μl of PBS) were subcutaneously injected into the right flank of 6-7 weeks old female CD-1 nude mice. After the size of tumour reached an approximate volume of 50 mm^3, 4 days post tumour cell injection, mitomycin C was administered by bolus infusion into the tail vein at days 4, 11 and 18 with a dose of 3.5 mg/kg/week. Antitumour effect of mitomycin C was further compared to that of SEQ ID NO:1 in combination with mitomycin C. SEQ ID NO:1 was administered by bolus infusion into the tail vein every day at 6 mg/kg and mitomycin C was administered intravenously at days 4, 11 and 18 with a dose of 3.5 mg/kg/week, one hour after the treatments with SEQ ID NO:1. Control animals received saline alone for the same period as SEQ ID NO:1. All treatments were stopped at day 22. A day after the last treatment, tumours were excised from the animals and their weights were measured.
HT-29 human colon cancer cells (3×10^6 cells in 100 μl of PBS) were subcutaneously injected into the right flank of 5-6 week old female CD-1 nude mice. After the size of tumour reached an approximate volume of 100 mm^3, 7 days post tumour cell injection, SEQ ID NO:1 was administered by bolus infusion into the tail vein every other day at 10 mg/kg. Control animals received saline alone for the same period. Antitumour effect of SEQ ID NO:1 was further compared to that of CPT-11 alone or that of SEQ ID NO:1 in combination with CPT-11. CPT-11 was administered intraperitoneally for 5 days in a row from […] with a dose of 20 mg/kg in 100 μl saline. All treatments were stopped at day 32. A day after the last treatment, tumours were excised from the animals and their weights were measured.
HT-29 human colon cancer cells (3×10^6 cells in 100 μl of PBS) were subcutaneously injected into the right flank of 6-7 week old female CD-1 nude mice. Treatments started at day 5 post tumour cell injection, SEQ ID NO:1 and 5-FU were administered as outlined below: • Groups and treatment: • Group 1. Saline treated group: saline:0.1 ml/2 days, i.v.; • Group 2. SEQ ID NO:1 treated group: 10 mg/kg/2 days in 100 μL saline, i.v.; • Group 3. 5-FU treated group:13 mg/kg/5 days/week (one week on and one week off), i.v.; • Group 4. SEQ ID NO:1 plus 5-FU treated group.
HT-29 human colon cancer cells (3×10^6 cells in 100 μl of PBS) were subcutaneously injected into the right flank of 5-6 week old female CD-1 nude mice. Treatments started 4 days post tumour cell injection, SEQ ID NO: 1 and Capecitabine were administered as outlined below: • Group and Treatment: • Group 1: treated with 0.2 ml vehicle solution for capecitabine, o.p.; • Group 2: treated with 0.1 ml saline, i.v.; • Group 3: treated with 359 mg/kg/day×5/w Capecitabine in 0.2 ml vehicle solution, o.p.; • Group 4: treated with 10 mg/kg/2 days SEQ ID NO:1 in 0.1 ml saline i.v.; • Group 5: treated with 10 mg/kg/2 days SEQ ID NO:1 in 0.1 ml saline, i.v. plus 359 mg/kg/day×5/w capecitabine in 0.2 ml vehicle solution, o.p.

In series [3] the test system is SK-OV-3 human ovary adenocarcinoma cells. Description: SK-OV-3 ovary tumour xenograft in CD-1 nude mice. Here is the method: SK-OV-3 human ovary adenocarcinoma cells (1×10^7 cells in 100 μl of PBS) were subcutaneously injected into the right flank of 6-7 weeks old female CD-1 nude mice. After the size of tumour reached an approximate volume of 100 mm^3, 6 days post tumour cell injection, SEQ ID NO:1 was administered by bolus infusion into the tail vein every other day at 10 mg/kg 17 times. Control animals received saline alone for the same period. Antitumour effect of SEQ ID NO: 1 was further compared to that of taxol or cisplatin alone or in combination. Taxol was administered intravenously once a week for first three weeks and intraperitoneally once a week for next two weeks at a dose of 10 mg/kg. Cisplatin was administered intravenously once a week for first three weeks and intraperitoneally once a week for next two weeks at a dose of 4 mg/kg. All treatments were stopped at day 40. Antitumour activities were estimated by the inhibition of tumour volume, which was measured with caliper. Each point represents mean tumour volume calculated from 9 animals per experimental group.

Series [4] relates to MDA-MB435-To.1 human Taxol-resistant breast adenocarcinoma cells. Description: MDA-MB435-To.1 Taxol-resistant breast adenocarcinoma, fat pad injection in SCID mice. To be noted: for Tumour weight as % of saline control: MDA-MB435-To.1 (breast), Taxol resistance. Also on record: Tumour weight as % of saline control: concentration or dose not given beside the values. Here is the method:
MDA-MB435-To.1 human Taxol-resistant breast adenocarcinoma cells (4×10^6 cells in […] of PBS) were injected into the fat pad (inside of right leg) of 6-7 weeks old female SCID mice. After the size of tumour reached an approximate volume of 100 mm^3, 20 days post tumour cell injection, SEQ ID NO:1 was administered by bolus infusion into the tail vein every other day at 10 mg/kg 15 times. Control animals received saline alone for the same period. Antitumour effect of SEQ ID NO:1 was further compared to that of Cisplatin or Taxol alone. Cisplatin was administered intravenously once a week for four weeks at a dose of 4 mg/kg. Taxol was administered intravenously once a week for four weeks at a dose of 20 mg/kg.
Antitumour activities were estimated by the inhibition of tumour volume, which was measured with caliper. Bach point represents mean tumour volume calculated from 9-10 animals per experimental group. […] As expected, treatment with Taxol during the same period was ineffective against Taxol-resistant tumour.
MDA-MB435-To.1 human Taxol-resistant breast adenocarcinoma cells (4×10^6 cells in 100 μl of PBS) were injected into the fat pad (inside of right leg) of 6-7 weeks old female CB-17 SCID mice. After the size of tumour reached an approximate volume of 100 mm^3, 17 days post tumour cell injection, SEQ ID NO:1 was administered by bolus infusion into the tail vein every other day at 10 mg/kg. Control animals received saline alone for the same period. Antitumour effect of SEQ ID NO:1 was compared to that of Cisplatin alone and in combination. Cisplatin was administered intravenously once a week for four weeks at a dose of 4 mg/kg. Antitumour activities were estimated by the inhibition of tumour volume, which was measured with caliper. Each point represents mean tumour volume calculated from 10 animals per experimental group. At the end of the study the animals were sacrificed and tumours weighed.

The results in this text go back to patent US20080311126A1, “Antisense Oligonucleotides Directed to Ribonucleotide Reducatase R2 and Uses Thereof in Combination Therapies for the Treatment of Cancer” (Genesense Technologies, Inc, priority 2004, published 2008).

Entries after “also recorded” stand apart in the source; their conditions may differ.

Regarding “GGCTAAATCGCTCCACCAAG (chemistry not given here) [SEQ ID NO: 1, antisense oligonucleotide that hybridizes to the coding region of human ribonucleotide reductase R2 mRNA]”, the “anti-tumour efficacy (tumour volume, tumour weight)” value in series [1] is “anti-tumour efficacy as monotherapies; also recorded: superior to both high and low dose IL-2 therapy”. Moreover, the “antitumour effect (tumour weight)” value in series [2] (Example 12.2, SEQ ID NO:1 10 mg/kg every other day i.v., CPT-11 20 mg/kg i.p. 5 days) is given as “significant delay of tumour growth; also recorded: superior to the inhibitory effects observed with CPT-11 alone”. The “Tumour weight as % of saline control” value is reported as 19% in series [2] (HT-29 (colon), Mouse CD-1, CPT-11 study); 37% in series [4] (CB-17/SCID); 42% in series [4] (SCID). Besides, the “antitumour effect (tumour volume)” value is on record as “significant delay of tumour growth” in series [3] (SEQ ID NO:1 10 mg/kg 17 times, taxol 10 mg/kg, cisplatin 4 mg/kg once a week) and “significant reduction of tumour weight; also recorded: superior to the inhibitory effects observed with Cisplatin” in series [4] (Example 13.5, SEQ ID NO:1 10 mg/kg 15 times, Cisplatin 4 mg/kg, Taxol 20 mg/kg i.v. weekly for four weeks). The “tumour volume data as percentage of saline control” value in series [3] (SK-OV-3 (ovary), Mouse CD-1) is 42%. In addition, the “antitumour effect (tumour volume, tumour weight)” value in series [4] (Example 13.6, CB-17 SCID mice, SEQ ID NO:1 10 mg/kg every other day, Cisplatin 4 mg/kg i.v. weekly) was “significant reduction of tumour weight; also recorded: superior to the inhibitory effects observed with Cisplatin”.
